Reference: patent publication US8192962B2, “Processes for detecting toxic substances” (Daikin Industries, Ltd., priority 2001, dated 2012)

System: Unknown protein yeast genes
Assay: DNA chip mRNA expression in yeast, unknown protein yeast genes (Table 1)
Assay type: cell-based, Saccharomyces cerevisiae S288C
Experimental: Yeast (Saccharomyces cerevisiae S288C (α SUC2mal mel gap2 CUP1)) were incubated at 25° C. on YPD medium (yeast extract 1%, polypepton 2%, glucose 2%). One of toxic chemical substances was added to the cells at logarithmic growth phase, and the cells were further incubated for two hours. Cells were cultured without any chemical substance in the same condition, and were used as control. Concentrations of the chemical substances were defined to inhibit the growth of the yeast but not lead to death.
After completion of the incubation, the culture was centrifuged to collect the cells. To the cells, sodium acetate buffer (50 mM sodium acetate, 10 mM EDTA, 1% SDS) was added, and the mixture was shaken at 65° C. for five minutes, followed by returning to room temperature, and obtaining the supernatant, of which the procedures were repeated two times. To the supernatant, ½ amount of a solution of phenol/chloroform was added, and the mixture was centrifuged to give a supernatant, which was added with an equal amount of chloroform, and the mixture was centrifuged to give a supernatant. To the supernatant, an equal amount of isopropanol containing 0.3 M sodium acetate was added, and the mixture was allowed to stand at room temperature for 30 minutes, after which the mixture was centrifuged to give a sediment of the whole RNAs. Seventy % ethanol was added to the sediment, and the mixture was again centrifuged to give a sediment, which was then dried and dissolved in water. mRNA was isolated from the whole RNAs as followings. In view of the fact that a poly A chain is attached to the 3′ terminus of mRNA, a polynucleotide having a poly T structure which was immobilized on the surface of latex beads was used to trap the mRNA, and then the mRNA was washed and eluted with spine column (Oligotex-dT30<Super>mRNA Purification Kit, Takara). Reverse transcription of the mRNA was conducted with a reverse transcriptase (Super Script II Reverse Transcriptase; catalogue No. 18064-014, GibcoBRL) using fluorescence-labeled nucleotides to give cDNAs that were introduced with Cy3-dUTP or Cy5-dUTP during the reverse transcription.
The labeled cDNAs were dissolved in TE buffer (10mM Tris-HCl/1 mM EDTA, pH8.0), and the solution was dropped on the DNA chip containing the whole genes of yeast (DNA Chip Research Inc. Japan) so that the cDNAs were hybridized on the DNA chip at 65° C. for over 12 hours. The fluoresces intensity of the DNA chip was read with a scanner, and the ratio relative to the fluorescence intensity resulting from the absence of chemical substance was estimated as the following, which is shown in Tables 1 to 9: […]

## [Cl][Hg][Cl] [(3), HgCl2]
Yeast gene YAL053W, incubated two hours with chemical substance
  The level of expressed mRNA in the presence of chemical substance/The level of expressed mRNA in the absence of chemical substance: 1.3
Yeast gene YBL048W
  The level of expressed mRNA in the presence of chemical substance/The level of expressed mRNA in the absence of chemical substance: 2.3
Yeast gene YBL107C
  The level of expressed mRNA in the presence of chemical substance/The level of expressed mRNA in the absence of chemical substance: 0.4
Yeast gene YDL072C, incubated two hours with chemical substance
  The level of expressed mRNA in the presence of chemical substance/The level of expressed mRNA in the absence of chemical substance: 3.5
Yeast gene YDL204W, incubated two hours with chemical substance
  The level of expressed mRNA in the presence of chemical substance/The level of expressed mRNA in the absence of chemical substance: 4.8
Yeast gene YDL222C, incubated two hours with chemical substance
  The level of expressed mRNA in the presence of chemical substance/The level of expressed mRNA in the absence of chemical substance: 1.5
Yeast gene YDR330W, incubated two hours with chemical substance
  The level of expressed mRNA in the presence of chemical substance/The level of expressed mRNA in the absence of chemical substance: 1.2
Yeast gene YDR411C, incubated two hours with chemical substance
  The level of expressed mRNA in the presence of chemical substance/The level of expressed mRNA in the absence of chemical substance: 1.8
Yeast gene YDR511W, incubated two hours with chemical substance
  The level of expressed mRNA in the presence of chemical substance/The level of expressed mRNA in the absence of chemical substance: 0.9
Yeast gene YDR545W, incubated two hours with chemical substance
  The level of expressed mRNA in the presence of chemical substance/The level of expressed mRNA in the absence of chemical substance: 0.6
Yeast gene YEL001C, incubated two hours with chemical substance
  The level of expressed mRNA in the presence of chemical substance/The level of expressed mRNA in the absence of chemical substance: 1.4
Yeast gene YER004W, incubated two hours with chemical substance
  The level of expressed mRNA in the presence of chemical substance/The level of expressed mRNA in the absence of chemical substance: 1.9
Yeast gene YER035W, incubated two hours with chemical substance
  The level of expressed mRNA in the presence of chemical substance/The level of expressed mRNA in the absence of chemical substance: 1.6
Yeast gene YER079W, incubated two hours with chemical substance
  The level of expressed mRNA in the presence of chemical substance/The level of expressed mRNA in the absence of chemical substance: 1.9
Yeast gene YER106W, incubated two hours with chemical substance
  The level of expressed mRNA in the presence of chemical substance/The level of expressed mRNA in the absence of chemical substance: 1.3
Yeast gene YER158C, incubated two hours with chemical substance
  The level of expressed mRNA in the presence of chemical substance/The level of expressed mRNA in the absence of chemical substance: 0.9
Yeast gene YER163C, incubated two hours with chemical substance
  The level of expressed mRNA in the presence of chemical substance/The level of expressed mRNA in the absence of chemical substance: 1.2
Yeast gene YER175C, incubated two hours with chemical substance
  The level of expressed mRNA in the presence of chemical substance/The level of expressed mRNA in the absence of chemical substance: 1.3
Yeast gene YFL006W, incubated two hours with chemical substance
  The level of expressed mRNA in the presence of chemical substance/The level of expressed mRNA in the absence of chemical substance: 1.6
Yeast gene YFL010C, incubated two hours with chemical substance
  The level of expressed mRNA in the presence of chemical substance/The level of expressed mRNA in the absence of chemical substance: 1.3
Yeast gene YFL024C
  The level of expressed mRNA in the presence of chemical substance/The level of expressed mRNA in the absence of chemical substance: 1.1
Yeast gene YFL032W, incubated two hours with chemical substance
  The level of expressed mRNA in the presence of chemical substance/The level of expressed mRNA in the absence of chemical substance: 1.6
Yeast gene YGL037C, incubated two hours with chemical substance
  The level of expressed mRNA in the presence of chemical substance/The level of expressed mRNA in the absence of chemical substance: 6.5
Yeast gene YGL047W, incubated two hours with chemical substance
  The level of expressed mRNA in the presence of chemical substance/The level of expressed mRNA in the absence of chemical substance: 1.6
Yeast gene YGL053W, incubated two hours with chemical substance
  The level of expressed mRNA in the presence of chemical substance/The level of expressed mRNA in the absence of chemical substance: 1.2
Yeast gene YGL121C
  The level of expressed mRNA in the presence of chemical substance/The level of expressed mRNA in the absence of chemical substance: 1.4
Yeast gene YGL199C, incubated two hours with chemical substance
  The level of expressed mRNA in the presence of chemical substance/The level of expressed mRNA in the absence of chemical substance: 1.7
Yeast gene YGR101W, incubated two hours with chemical substance
  The level of expressed mRNA in the presence of chemical substance/The level of expressed mRNA in the absence of chemical substance: 1.2
Yeast gene YGR110W
  The level of expressed mRNA in the presence of chemical substance/The level of expressed mRNA in the absence of chemical substance: 2.2
Yeast gene YGR130C, incubated two hours with chemical substance
  The level of expressed mRNA in the presence of chemical substance/The level of expressed mRNA in the absence of chemical substance: 0.6
Yeast gene YGR154C, incubated two hours with chemical substance
  The level of expressed mRNA in the presence of chemical substance/The level of expressed mRNA in the absence of chemical substance: 2.2
Yeast gene YGR221C, incubated two hours with chemical substance
  The level of expressed mRNA in the presence of chemical substance/The level of expressed mRNA in the absence of chemical substance: 0.9
Yeast gene YHR138C, incubated two hours with chemical substance
  The level of expressed mRNA in the presence of chemical substance/The level of expressed mRNA in the absence of chemical substance: 2.2
Yeast gene YHR199C, incubated two hours with chemical substance
  The level of expressed mRNA in the presence of chemical substance/The level of expressed mRNA in the absence of chemical substance: 3.2
Yeast gene YIL023C, incubated two hours with chemical substance
  The level of expressed mRNA in the presence of chemical substance/The level of expressed mRNA in the absence of chemical substance: 2.1
Yeast gene YIL041W, incubated two hours with chemical substance
  The level of expressed mRNA in the presence of chemical substance/The level of expressed mRNA in the absence of chemical substance: 2.1
Yeast gene YIL087C, incubated two hours with chemical substance
  The level of expressed mRNA in the presence of chemical substance/The level of expressed mRNA in the absence of chemical substance: 3.4
Yeast gene YJL057C, incubated two hours with chemical substance
  The level of expressed mRNA in the presence of chemical substance/The level of expressed mRNA in the absence of chemical substance: 1.6
Yeast gene YJL066C, incubated two hours with chemical substance
  The level of expressed mRNA in the presence of chemical substance/The level of expressed mRNA in the absence of chemical substance: 1.2
Yeast gene YJL082W, incubated two hours with chemical substance
  The level of expressed mRNA in the presence of chemical substance/The level of expressed mRNA in the absence of chemical substance: 2.4
Yeast gene YJL151C, incubated two hours with chemical substance
  The level of expressed mRNA in the presence of chemical substance/The level of expressed mRNA in the absence of chemical substance: 3.2
Yeast gene YJL152W, incubated two hours with chemical substance
  The level of expressed mRNA in the presence of chemical substance/The level of expressed mRNA in the absence of chemical substance: 1.8
Yeast gene YJL161W, incubated two hours with chemical substance
  The level of expressed mRNA in the presence of chemical substance/The level of expressed mRNA in the absence of chemical substance: 1.5
Yeast gene YJL171C, incubated two hours with chemical substance
  The level of expressed mRNA in the presence of chemical substance/The level of expressed mRNA in the absence of chemical substance: 2.8
Yeast gene YJR008W, incubated two hours with chemical substance
  The level of expressed mRNA in the presence of chemical substance/The level of expressed mRNA in the absence of chemical substance: 1.2
Yeast gene YJR054W, incubated two hours with chemical substance
  The level of expressed mRNA in the presence of chemical substance/The level of expressed mRNA in the absence of chemical substance: 0.3
Yeast gene YKL071W
  The level of expressed mRNA in the presence of chemical substance/The level of expressed mRNA in the absence of chemical substance: 5.4
Yeast gene YKL086W, incubated two hours with chemical substance
  The level of expressed mRNA in the presence of chemical substance/The level of expressed mRNA in the absence of chemical substance: 2.4
Yeast gene YKL151C, incubated two hours with chemical substance
  The level of expressed mRNA in the presence of chemical substance/The level of expressed mRNA in the absence of chemical substance: 1.7
Yeast gene YKL153W, incubated two hours with chemical substance
  The level of expressed mRNA in the presence of chemical substance/The level of expressed mRNA in the absence of chemical substance: 2.0
